Laboratory results reported in patent US8835474B2, “Remedy for overactive bladder comprising acetic acid anilide derivative as the active ingredient” (Astellas Pharma Inc., priority 2002, dated 2014).

Assays:
[1] = tested on: isolated rat bladder smooth muscle; test: Isolated rat bladder smooth muscle relaxation test, antagonism test to contraction by carbachol; type: cell-based; details: for EC50: Rattus norvegicus; for EC50 / Maximum Relaxation Rate: contraction by 10^−6 M carbachol, relaxation by 10^−4 M papaverine defined as 100%; for Comparison of Action Strength: compared in the concentration giving a relaxation rate of 15.7%, CGP-12,177A = 1; for Concentration where the compound showed a relaxation rate of 15.7%: maximum relaxation rate of CGP-12,177A
Procedure: (§1) The test was conducted by referring to The Journal of Urology, 1999, volume 161, page 680.
(§2) Male rats of Wistar strain of 10 to 11 weeks age were sacrificed by depletion, whole bladder was isolated by laparotomy and bladder sections each being in a size of about 3×10 mm were prepared in a nutrient solution which was well oxygenated with 95% O2 and 5% CO2 (Krebs-Henseleit solution (118.4 mM NaCl, 4.7 mM KCl, 1.2 mM KH2PO4; 1.2 mM MgSO4, 2.5 mM CaCl2, 25.0 mM NaHCO3 and 11.1 mM glucose)). The section was hung in a Magnus tube in which a nutrient solution (Krebs-Henseleit solution) of 37° C. into which 95% O2 and 5% CO2 were aerated, stabilized for 30 to 60 minutes with a load of 1 g and 10^−6 M carbachol (CCh) or 40 mM potassium chloride (KCl) was repeatedly applied thereto whereupon it was confirmed that reactivity to CCh or KCl became almost constant. After contraction by 10^−6 M CCh or 40 mM KCl was induced and the generated tension was stabilized, a test drug (compound A or CGP-12, 177A) was cumulatively administered in 10-fold ratio with intervals of about 10 minutes and the relaxation reaction was observed. After completion of observation of relaxation reaction at maximum concentration of the test drug, 10^−4 M papaverine was added to induce the maximum relaxation and a relaxation rate was calculated where the relaxation reaction was defined as 100%.

[2] = tested on: isolated rat bladder smooth muscle; test: Isolated rat bladder smooth muscle relaxation test, antagonism test to contraction by potassium chloride; type: cell-based; details: for EC50: Rattus norvegicus; for EC50 / Maximum Relaxation Rate: contraction by 40 mM potassium chloride, relaxation by 10^−4 M papaverine defined as 100%; for Comparison of Action Strength: compared in the concentration giving a relaxation rate of 17.4%, CGP-12,177A = 1; for Concentration where the compound showed a relaxation rate of 17.4%: maximum relaxation rate of CGP-12,177A
Procedure: as §1, §2

[3] = tested on: cyclophosphamide-induced overactive bladder model rat; test: Measurement of urination function of overactive bladder model rat induced by cyclophosphamide; type: in vivo; details: 1 mg/kg i.v.; 30 minutes after administration versus 30 minutes before
Procedure: Overactive bladder model rats induced by cyclophosphamide were prepared by referring to British Journal of Pharmacology, 2000, volume 130, page 331 and the following test was conducted. Female rats (220 to 230 g) of Wistar strain were used for the test. Under anesthetization with pentobarbital sodium, a catheter for infusion of physiological saline solution and for measurement of pressure in bladder was inserted into bladder from the top of the bladder and fixed while a catheter for administration of a drug was inserted into carotid vein and fixed. Cyclophosphamide (CYP) was administered into abdominal cavity and, after being recovered, the rats were returned to a feeding cage. On the next day of the operation, one end of the catheter inserted into bladder of the rat was connected to a syringe pump via a three-way cock and a physiological saline solution was continuously infused whereby |micturition| reflex was induced. Another end was connected to a pressure transducer and pressure in the bladder was measured. After the micturition reflex was stabilized, 1 mg/kg of the compound A was administered from a catheter for administration of drug which was inserted into carotid vein. Parameter for the evaluation was an average interval for urination from administration of the drug until 30 minutes thereafter. […]

[4] = tested on: rhythmic bladder contraction; test: Rat rhythmic bladder contraction measurement test; type: in vivo
Procedure: The test was conducted by referring to European Journal of Pharmacology, 2000, volume 407, page 175. Female rats (225 to 290 g) of Wistar strain was used for the test. Under anesthetization with urethane, right and left ureters were ligated and cut and, after that, a polyethylene cannula was inserted from external urinary meatus and fixed. One end of the fixed cannula was connected to a pressure transducer via a three-way cock and pressure in the bladder was measured. Another end thereof was connected to a syringe pump and a physiological saline solution was continuously infused at a constant rate into bladder whereupon rhythmic bladder contraction was induced. The continuous infusion of a physiological saline solution was stopped after a rhythmic bladder contraction was noted. After the rhythmic bladder contraction was stabilized, drug or vehicle was administered from a catheter for administration of drug inserted into femoral vein. The compound A was intravenously administered in increased doses where the ratio was 3 (0.03, 0.1, 0.3, 1 and 3 mg/kg). A group to which vehicle was administered was used as a control group. Parameters for evaluation were number of times and contraction pressure of bladder contraction during 10 minutes from 5 to 15 minutes after the administration of the drug and each group was conducted in n=5. The result is shown in terms of mean value±standard error and Student t-test was conducted for comparison between the two groups.

[5] = contraction by potassium chloride

| SMILES | EC50 [1] [µM] | Maximum Relaxation Rate [1] [%] | Comparison of Action Strength ([1]; contraction by carbachol) | Concentration where the compound showed a relaxation rate of 15.7% ([1]; contraction by carbachol) | EC50 [2] [µM] | Maximum Relaxation Rate [2] [%] | Comparison of Action Strength [2, 5] | Concentration where the compound showed a relaxation rate of 17.4% [2, 5] | relaxation action ([1]; antagonism test to contraction by carbachol) | action strength as compared with CGP-12,177A ([1]; contraction by carbachol) [fold] | elongation of micturition interval [3] [%] | relaxation action ([2]; antagonism test to contraction by potassium chloride) | action strength as compared with CGP-12,177A [2, 5] [fold] | action of decreasing the contraction frequency versus control group ([4]; 3 mg/kg i.v., Student t-test, p<0.05) | contraction frequency of rhythmic bladder contraction ([4]; i.v. 0.03, 0.1, 0.3, 1 and 3 mg/kg, 5 to 15 minutes after administration, anesthetized female Wistar rats) | contraction pressure of rhythmic bladder contraction ([4]; until intravenous administration of 3 mg/kg) |
| --- | --- | --- | --- | --- | --- | --- | --- | --- | --- | --- | --- | --- | --- | --- | --- | --- |
| CC(C)(C)NC[C@H](O)COc1cccc2[nH]c(=O)[nH]c12 [CGP-12, 177A, reference compound] | > 100 | 15.7 | 1 | 10^−4 M | > 100 | 17.4 | 1 | 10^−4 M |  |  |  |  |  |  |  |  |
| Nc1nc(CC(=O)Nc2ccc(CCNC[C@H](O)c3ccccc3)cc2)cs1 [Compound A, (R)-2-(2-aminothiazol-4-yl)-4′-[2-[(2-hydroxy-2-phenylethyl)amino]-ethyl]acetic acid anilide] | 5.2 | 94.0 | 270 | 3.7e-07 M | 11 | 69.1 | 383 | 2.6e-07 M | strong relaxation action | 270 | 17.3 | strong relaxation action | 383 | significant | decreased on a dose-dependent manner | did not affect |
